Laboratory results published in patent publication US8309557B2, “Pyrimidin-4-ylpropanedinitrile derivatives, processes for their preparation and their use as herbicides and plant growth regulators” (Bayer Intellectual Property GmbH, priority 2009, dated 2012).

Legend:
Format in all cases: in vivo
Matricaria inodora = assay: Herbicidal effect post-emergence, MATIN
Method: (§1) Seeds of mono- and dicotyledonous weed plants and crop plants are planted in wood-fiber pots in sandy loam, covered with earth and grown in a greenhouse under good growth conditions. 2 to 3 weeks after sowing, the test plants are treated in the single-leaf stage. The compounds according to the invention, formulated in the form of wettable powders (WP) or as emulsion concentrates (EC), are then sprayed onto the green plant parts as aqueous suspension or emulsion using an application rate of 600 to 800 l of water/ha (converted) with the addition of 0.2% by weight of wetting agent. After the test plants had been in the greenhouse for ca. 3 weeks under optimum growth conditions, the effect of the preparations is scored visually in comparison with untreated controls (herbicidal effect in percent (%): 100% effect=plants have died off, 0% effect=as control plants).

Veronica persica [1] = assay: Herbicidal effect post-emergence, VERPE
Method: as §1

Amaranthus retroflexus [2] = assay: Herbicidal effect post-emergence, AMARE
Method: as §1

[3] = tested on: Polygonum (Fallopia) convolvulus; assay: Herbicidal effect post-emergence, POLCO
Method: as §1

Abutilon theophrasti = assay: Herbicidal effect post-emergence, ABUTH
Method: as §1

Setaria viridis = assay: Herbicidal effect post-emergence, SETVI
Method: as §1

Viola tricolor [4] = assay: Herbicidal effect post-emergence, VIOTR
Method: as §1

Echinochloa crus-galli = assay: Herbicidal effect post-emergence, ECHCG
Method: as §1

Stellaria media = assay: Herbicidal effect post-emergence, STEME
Method: as §1

Amaranthus retroflexus [5] = assay: Herbicidal effect pre-emergence, AMARE; details: 320 g/hectare, visual grading after 3 weeks vs untreated controls
Excerpt: (§2) Seeds of mono- and dicotyledonous weed plants and crop plants are planted in wood-fiber pots in sandy loam and covered with earth. The compounds according to the invention, formulated in the form of wettable powders (WP) or as emulsion concentrates (EC), are then applied to the surface of the covering earth as aqueous suspension or emulsion at an application rate corresponding to 320 g/hectare at an application rate of 600 to 800 l of water/ha (converted) with the addition of 0.2% wetting agent.
(§3) Following treatment, the pots are placed in a greenhouse and kept under good growth conditions for the test plants. The visual grading of the damage to the test plants is carried out after a test time of 3 weeks in comparison to untreated controls (herbicidal effect in percent (%): 100% effect=plants have died off, 0% effect=as control plants).

Veronica persica [6] = assay: Herbicidal effect pre-emergence, VERPE; details: 320 g/hectare, visual grading after 3 weeks vs untreated controls
Excerpt: as §2, §3

Viola tricolor [7] = assay: Herbicidal effect pre-emergence, VIOTR; details: 320 g/hectare, visual grading after 3 weeks vs untreated controls
Excerpt: as §2, §3

[8] = 0.32 kg and less of active substance per hectare, visual score after ca. 3 weeks vs untreated controls

| Structure (SMILES) | Effect in % in respect of stated plant, MATIN (Matricaria inodora) | Effect in % in respect of stated plant, VERPE (Veronica persica [1]) | Effect in % in respect of stated plant, AMARE (Amaranthus retroflexus [2]) | Effect in % in respect of stated plant, POLCO [3] | Effect in % in respect of stated plant, ABUTH (Abutilon theophrasti) | Effect in % in respect of stated plant, VERPE (Veronica persica [6]) | other results |
| --- | --- | --- | --- | --- | --- | --- | --- |
| N.N#CC(C#N)c1nc(-c2ccc(F)cc2)nc(N)c1Cl [Compound 300] | 80% | 80% | 80% |  |  |  |  |
| N.N#CC(C#N)c1nc(-c2ccc(Br)cc2F)nc(N)c1Cl [Compound 392] | 100% | 90% | 100% | 90% | 90% | 100% | Effect in % in respect of stated plant, SETVI (Setaria viridis): 80%; Effect in % in respect of stated plant, VIOTR (Viola tricolor [4]): 90%; Effect in % in respect of stated plant, ECHCG (Echinochloa crus-galli): 80%; Effect in % in respect of stated plant, STEME (Stellaria media): 90%; Effect in % in respect of stated plant, AMARE (Amaranthus retroflexus [5]): 80%; Effect in % in respect of stated plant, VIOTR (Viola tricolor [7]): 100% |
| Cc1ccc(-c2nc(N)c(Cl)c(C(C#N)C#N)n2)cc1F [compound 204] | 80% | 80% | 90% | 80% | 90% |  | Effect in % in respect of stated plant, ECHCG (Echinochloa crus-galli): 80% |
| N#CC(C#N)c1nc(-c2ccc(Cl)c(C(F)(F)F)c2)nc(N)c1Cl [compound 87] | 90% | 90% |  |  |  |  |  |
| N.N#CC(C#N)c1nc(-c2cccc(Cl)c2Cl)nc(N)c1Cl [Compound 390] |  | 80% | 90% | 80% |  |  |  |
| N#CC(C#N)c1nc(-c2ccc(Cl)cc2)nc(N)c1Cl [Ex. No. 29, [6-Amino-5-chloro-2-(4-chlorophenyl)pyrimidin-4-yl]propanedinitrile] |  | 90% |  |  | 80% | 100% | Effect in % in respect of stated plant, VIOTR (Viola tricolor [4]): 80%; Effect in % in respect of stated plant, VIOTR (Viola tricolor [7]): 80% |
| N#CC(C#N)c1nc(-c2cc(F)c(Cl)c(F)c2)nc(N)c1Cl [compound 210] |  | 80% | 90% |  |  | 80% | Effect in % in respect of stated plant, VIOTR (Viola tricolor [7]): 100% |
| N#CC(C#N)c1nc(-c2ccc(C(F)(F)F)cc2)nc(N)c1Cl [compound 45] | 80% | 90% |  | 80% |  |  | Effect in % in respect of stated plant, SETVI (Setaria viridis): 80%; Effect in % in respect of stated plant, VIOTR (Viola tricolor [4]): 80% |
| N#CC(C#N)c1nc(-c2ccccc2)nc(N)c1Cl [Ex. No. 1, [6-Amino-5-chloro-2-phenylpyrimidin-4-yl]propanedinitrile] |  |  |  |  |  |  | herbicidal effect (Matricaria inodora; [8]): at least 80%; herbicidal effect [3, 8]: at least 80%; herbicidal effect (Veronica persica [1]; [8]): at least 80% |
| Cc1ccc(-c2nc(N)c(Cl)c(C(C#N)C#N)n2)c(F)c1.N [Compound 391] |  |  |  | 80% |  |  |  |
| N#CC(C#N)c1nc(-c2cccc(Cl)c2Cl)nc(N)c1Cl [compound 207] | 80% | 90% | 100% | 100% | 80% |  | Effect in % in respect of stated plant, STEME (Stellaria media): 80% |
| Cc1cc(-c2nc(N)c(Cl)c(C(C#N)C#N)n2)ccc1F [compound 205] |  |  |  |  |  | 100% | Effect in % in respect of stated plant, VIOTR (Viola tricolor [7]): 100% |
| N#CC(C#N)c1nc(C2CCCCC2)nc(N)c1Cl [compound 240] | 80% | 90% |  |  | 80% |  |  |
| Cc1cc(-c2nc(N)c(Cl)c(C(C#N)C#N)n2)ccc1F.N [Compound 389] |  | 80% | 80% | 80% | 80% |  |  |
| N#CC(C#N)c1nc(-c2ccc(F)cc2F)nc(N)c1Cl [compound 201] | 80% | 90% | 90% | 90% |  |  |  |
| Cc1ccc(-c2nc(N)c(Cl)c(C(C#N)C#N)n2)cc1F.N [Compound 385] | 80% |  | 100% | 80% | 80% |  |  |
| N.N#CC(C#N)c1nc(-c2ccc(F)cc2F)nc(N)c1Cl [Compound 383] | 90% | 90% | 90% | 100% | 80% |  |  |
| N#CC(C#N)c1nc(-c2ccc(Cl)cc2Cl)nc(N)c1Cl [compound 186] | 90% | 90% | 100% | 100% | 100% | 100% | Effect in % in respect of stated plant, VIOTR (Viola tricolor [4]): 80%; Effect in % in respect of stated plant, STEME (Stellaria media): 90%; Effect in % in respect of stated plant, AMARE (Amaranthus retroflexus [5]): 90% |
| N#C[C-](C#N)c1nc(-c2ccc(Cl)c(Cl)c2)nc(N)c1Cl.[Na+] [Compound 340] | 90% | 90% | 90% | 90% | 80% |  |  |
| N.N#CC(C#N)c1nc(-c2ccc(Cl)cc2)nc(N)c1Br [Compound 313] | 90% | 100% | 100% |  | 80% |  | Effect in % in respect of stated plant, VIOTR (Viola tricolor [4]): 80%; Effect in % in respect of stated plant, STEME (Stellaria media): 90% |
| N#CC(C#N)c1nc(-c2cc(F)ccc2N)nc(N)c1Cl [compound 203] |  |  |  |  |  | 90% | Effect in % in respect of stated plant, AMARE (Amaranthus retroflexus [5]): 100% |
| N#CC(C#N)c1nc(-c2ccc(Cl)c(Cl)c2)nc(N)c1Cl [compound 104] | 90% | 90% | 90% | 80% | 80% |  | Effect in % in respect of stated plant, SETVI (Setaria viridis): 80%; Effect in % in respect of stated plant, VIOTR (Viola tricolor [4]): 80%; Effect in % in respect of stated plant, ECHCG (Echinochloa crus-galli): 80% |
| N.N#CC(C#N)c1nc(-c2ccc(Cl)cc2Cl)nc(N)c1Cl [Compound 375] | 90% | 90% | 100% | 100% | 90% | 100% | Effect in % in respect of stated plant, AMARE (Amaranthus retroflexus [5]): 100%; Effect in % in respect of stated plant, VIOTR (Viola tricolor [7]): 80% |
